Experimental data: patent US8476255B2, “Histone deacetylase inhibitors” (Orchid Chemicals & Pharmaceuticals Limited, priority 2007, dated 2013)

Experiments:
NCIH460 (lung) cells = experiment: Anti-cancer screen (MTT), NCIH460; format: cell-based; details: Homo sapiens, NCI-H460, NCIH460, 48 hours, MTT; for GI50: read-out: Cell growth inhibition NCIH460 (Lung) GI50; for LC50: read-out: Cell growth inhibition NCIH460 (Lung) LC50; for IC (TGI): read-out: Cell growth inhibition NCIH460 (Lung) TGI
Protocol: (§1) Experimental drugs were screened for anti-cancer activity in three cell lines using five concentrations for each compound. The cell lines —HCT 116 (colon), NCIH460 (lung) and U251 (glioma) were maintained in DMEM containing 10% fetal bovine serum. 96-well microtiter plates are inoculated with cells in 100 μL of cell suspension (5×10^4 cells/mL) for 24 hours at 37° C., 5% CO2, 95% air and 100% relative humidity. A separate plate with these cell lines is also inoculated to determine cell viability before the addition of the compounds (T0).
(§2) Following 24-hours incubation, test compounds were added to the 96 well plates. Each plate contains one of the above cell lines and the following samples in triplicate: five different dilutions (0.01, 0.1, 1, 10 and 100 μM) of four test compounds, appropriate dilutions of a cytotoxic standard and growth medium (untreated) wells. Test compounds were dissolved in DMSO to prepare 20 mM stock solutions on the day of drug addition and serial dilutions were carried out in complete growth medium at 2× strength such that 100 μL added to wells gave final concentrations (0.01, 0.1, 1, 10 and 100 μM) in the well. SAHA was used as standard drug in these experiments.
(§3) For T0 measurement, 24 hours after seeding the cells, 20 μL of 3-(4,5-dimethyl-2-thiazolyl)-2,5-diphenyl-2H-tetrazolium (MTT) solution per well was added to the ‘T0’ plate and incubated for 3 hours at 37° C. in a CO2 incubator. The plate containing cells and test compounds was treated similarly after 48 hours of incubation. After 3 hours of MTT addition, well contents were aspirated carefully followed by addition of 150 μL DMSO per well. Plates were agitated to ensure dissolution of the formazan crystals in DMSO and absorbance was read at 570 nm (A570).
(§4) (Mosmann T. Rapid colorimetric assay for cellular growth and survival: application to proliferation and cytotoxicity assays. J Immunol Methods 1983; 65(1-2): 55-63; Anne Monks et al. Feasibility of high-flux anticancer drug screen using a diverse panel of cultured human tumor cell lines”. JNCI, Vol. 83, No. 11, 1991).

HCT 116 (colon) cells = experiment: Anti-cancer screen (MTT), HCT 116; format: cell-based; details: Homo sapiens, HCT-116, HCT116, 48 hours, MTT; for GI50: read-out: Cell growth inhibition HCT116 (Colon) GI50; for CC50: read-out: Cell growth inhibition HCT116 (Colon) LC50; for IC (TGI): read-out: Cell growth inhibition HCT116 (Colon) TGI
Protocol: as §1, §2, §3, §4

[1] = test system: NCIH460, HCT116 and U251 cells; experiment: Anti-cancer screen, mean GI50 over cell lines; format: cell-based; details: mean over cell lines; read-out: Cell growth inhibition Mean GI50
Protocol: as §1, §2, §3, §4

U251 (glioma) cells = experiment: Anti-cancer screen (MTT), U251; format: cell-based; details: Homo sapiens, U-251, U251, 48 hours, MTT; for GI50: read-out: Cell growth inhibition U251 (Glioma) GI50; for LC50 (concentration giving 50% net cell kill relative to the time-zero cell count): read-out: Cell growth inhibition U251 (Glioma) LC50; for IC (TGI): read-out: Cell growth inhibition U251 (Glioma) TGI
Protocol: as §1, §2, §3, §4

[2] = test system: HDAC (Mouse Liver Extract); experiment: HDAC inhibition assay using Boc-Lys(Ac)-AMC substrate; format: biochemical; details: mouse liver enzyme
Protocol: Inhibition of HDAC has been implicated to modulate transcription and to induce apoptosis or differentiation in cancer cells. The fluorometric assay provides a fast and fluorescence based method that eliminates radioactivity, extractions or chromatography, as used in traditional assays. The assay is based on two steps. First, the HDAC fluorometric substrate, which comprises an acetylated lysine side chain, is incubated with a sample containing HDAC activity (Mouse Liver Extract). Deacetylation of the substrate sensitizes the substrate, in the second step; treatment with the Trypsin stop solution produces a fluorophore that can be easily analyzed using fluorescence plate reader. Assay was done in 96-well black microplate and total volume of the assay was […]. […] The plate was pre-incubated at 37° C. for 5 minutes. […] The plate was incubated at 37° C. for 30 min. The reaction was stopped by adding 100 μL, of Trypsin stop solution and incubating at 37° C. for 15-30 min. Measuring the fluorescence at excitation wavelength of 360 nm and emission wavelength of 460 nm monitored the release of AMC. Buffer alone and substrate alone served as blank. […] (Dennis Wegener et al, Anal. Biochem, 321, 2003, 202-208).

| SMILES | GI50 (NCIH460 (lung) cells) [µM] | LC50 (NCIH460 (lung) cells) [µM] | IC (TGI) (NCIH460 (lung) cells) [µM] | GI50 (HCT 116 (colon) cells) [µM] | CC50 (HCT 116 (colon) cells) [µM] | IC (TGI) (HCT 116 (colon) cells) [µM] | GI50 [1] [µM] | GI50 (U251 (glioma) cells) [µM] | LC50 (concentration giving 50% net cell kill relative to the time-zero cell count) (U251 (glioma) cells) [µM] | IC (TGI) (U251 (glioma) cells) [µM] | HDAC inhibition % (1 μM) [2] [%] | HDAC inhibition % (10 μM) [2] [%] | IC50 [2] [µM] |
| --- | --- | --- | --- | --- | --- | --- | --- | --- | --- | --- | --- | --- | --- |
| COc1ccc(/C(=C\c2ccc(SC)cc2)C(=O)NCCCCCC(=O)NO)cc1 [Compound 92, 6-(2-(4-Methoxyphenyl)-3-(4-methylthiophenyl)acrylamido)-N-hydroxy hexanamide] | 6 | 82 | 40 | 7.5 | 87 | 46 | 7.8 | 10 | 76 | 16 | – | – | – |
| COc1cc(/C=C(/C(=O)NCc2ccc(C(=O)Nc3ccccc3N)cc2)c2ccc(F)cc2)cc(OC)c1 [Compound 17, N-(2-Aminophenyl)-4-((3-(3,5-dimethoxyphenyl)-2-(4-fluorophenyl)acrylamido)methyl)benzamide] | 38 | > 100 | 80 | 29 | > 100 | 69 | 33.5 | – | – | – | 25.7 | 20.3 | – |
| Nc1ccccc1NC(=O)c1ccc(CNC(=O)/C(=C/c2ccc(F)c(C(F)(F)F)c2)c2ccc([N+](=O)[O-])cc2)cc1 [Compound 5, N-(2-Aminophenyl)-4-((3-(4-fluoro-3-trifluoromethylphenyl)-2-(4-nitrophenyl)acrylamido)methyl)benzamide] | 5.5 | > 100 | > 100 | 3.1 | > 100 | 11 | 4.3 | – | – | – | 0.0 | −27.4 | – |
| COc1ccc(/C(=C\c2ccc(SC)cc2)C(=O)NCc2ccc(C(=O)NO)cc2)cc1 [Compound 57, 4-((2-(4-Methoxyphenyl)-3-(4-methylthiophenyl)acrylamido)methyl)-N-hydroxybenzamide] | 3 | 33 | 8 | 1.8 | 54 | 8 | 1.7 | 0.2 | 60 | 0.4 | – | – | – |
| CSc1ccc(/C=C(/C(=O)NCc2ccc(C(=O)NO)cc2)c2ccc(C)cc2)cc1 [Compound 58, 4-((2-(4-Methylphenyl)-3-(4-methylthiophenyl)acrylamido)methyl)-N-hydroxybenzamide] | 2.1 | 81 | 6 | 2.8 | 65 | 18 | 8.6 | 21 | 80 | 35 | – | – | – |
| Nc1ccccc1NC(=O)c1ccc(CNC(=O)/C(=C/C2CC2)c2ccc(F)cc2)cc1 [Compound 14, N-(2-Aminophenyl)-4-((3-(cyclopropyl)-2-(4-fluorophenyl)acrylamido)methyl)benzamide] | 8 | 82 | 49 | 5.6 | 81 | 24 | 6.8 | – | – | – | 22.8 | 31.6 | – |
| CSc1ccc(/C=C(/C(=O)NCc2ccc(/C=C/C(=O)NO)cc2)c2ccc(F)cc2)cc1 [Compound 76, (1E)-N-(4-(3-(Hydroxyamino)-3-oxoprop-1-enyl)benzyl)-2-(4-fluorophenyl)-3-(4-methylthiophenyl)acrylamide] | 4.2 | > 100 | 42.5 | 5 | > 100 | 60 | 4.6 | – | – | – | 42.6 | 89.8 | 0.06 |
| O=C(CCCCCNC(=O)/C(=C/C1CC1)c1ccc(F)cc1)NO [Compound 93, 6-(2-(4-Fluorophenyl)-3-(cyclopropyl)acrylamido)-N-hydroxy hexanamide] | > 100 | > 100 | > 100 | 54 | > 100 | > 100 | 73 | 92 | > 100 | > 100 | – | – | – |
| CSc1ccc(/C=C(/C(=O)NCCCCCC(=O)NO)c2ccccc2F)cc1 [Compound 94, 6-(2-(2-Fluorophenyl)-3-(4-methylthiophenyl)acrylamido)-N-hydroxy hexanamide] | 4.2 | 74 | 26 | 3.3 | 80 | 22 | 2.8 | 1 | 70 | 10 | – | – | – |
| COc1ccc(/C(=C\c2ccc(SC)cc2)C(=O)NCc2ccc(C(=O)Nc3ccccc3N)cc2)cc1 [Compound 16, N-(2-Aminophenyl)-4-((3-(4-methylthiophenyl)-2-(4-methoxyphenyl)acrylamido)methyl)benzamide] | 45 | > 100 | 97 | 40 | > 100 | 82 | 42.5 | – | – | – | 30.7 | 46.0 | – |
| CSc1ccc(/C=C(/C(=O)NCc2ccc(C(=O)Nc3ccccc3N)cc2)c2ccccc2Cl)cc1 [Compound 23, N-(2-Aminophenyl)-4-((3-(4-methylthiophenyl)-2-(2-chlorophenyl)acrylamido)methyl)benzamide] | 34 | > 100 | > 100 | 4 | 98 | 8 | 19 | > 100 | > 100 | > 100 | – | – | – |
| Nc1ccccc1NC(=O)c1ccc(CNC(=O)/C(=C/c2ccnc3ccccc23)c2ccc(F)cc2)cc1 [Compound 22, N-(2-Aminophenyl)-4-((3-(quinolin-4-yl)-2-(4-fluorophenyl)acrylamido)methyl)benzamide] | 7.6 | > 100 | 80 | 7.9 | > 100 | 70 | 7.8 | – | – | – | 32.9 | 56.1 | 3.2 |
| Nc1ccccc1NC(=O)c1ccc(CNC(=O)/C(=C/c2ccncc2)c2ccc(F)cc2)cc1 [Compound 15, N-(2-Aminophenyl)-4-((3-(pyridin-4-yl)-2-(4-fluorophenyl)acrylamido)methyl)benzamide] | 8.8 | 95 | 60 | 2.7 | 94 | 30 | 5.8 | – | – | – | 42.7 | 56.9 | 3.8 |
